The values that follow come from PMC5503984, “Characterisation of preproendothelin-1 derived peptides identifies Endothelin-Like Domain Peptide as a modulator of Endothelin-1” (Scientific Reports, 2017).

Series [1] is described as follows: Clearance of proET-1 peptides after i.v. bolus in anaesthetised rats. Type of series: in vivo, rat. As to the method:
To examine whether circulating half-lives influenced plasma levels of proET-1 peptides clearance rates were investigated in anaesthetised rats. […] Based on a circulating blood volume of 7.2 ± 0.3 ml per 100 g body weight, a mean weight of 345 ± 6 g and hematocrit of 40–60%, the hypothetical maximum plasma concentrations were 23–35 pmol/ml. However, the levels of NT-proET-1, ELDP and CT-proET-1 30 s after injection were 0.29 ± 0.02, 3.65 ± 0.23, and 11.74 ± 0.64 pmol/ml, respectively. Relative to estimates for dilution in circulating blood, these values represent ≈1%, 10–16%, and 34–51% of administered peptide for NT-proET-1, ELDP and CT-proET-1. Moreover, NT-proET-1 was almost completely cleared from the circulation in <5 min (estimated initial t½ < 20 s).
Figure 5 Comparison of clearance rates of NT-proET-1, ELDP and CT-proET-1 in anaesthetised rats. A bolus dose containing 1 nmol/kg of each proET-1 peptide as a combined solution prepared in 0.9% saline/0.1% BSA was administered i.v. and heparinised arterial blood samples (0.5 ml) were collected at 0.5, 1, 2, 5, 10, 20 and 40 min after administration of proET-1 peptides. NT-proET-1 (mauve circles), ELDP (red circles) and CT-proET-1 (blue circles) were measured by magnetic bead-based multiplex assays using Luminex methodology (values are mean ± SD, except where SD is less than the symbol size).
A multiplexed immunoassay system was used for simultaneous measurement of NT-proET-1, ELDP and CT-proET-1 in small volumes of rat plasma. Capture antibodies were conjugated to magnetic beads (region 45 – NT-proET-1, region 36 – ELDP, and region 27 – CT-proET-1) following standard protocols (Luminex Corporation). For assay capture antibody-coated magnetic beads were diluted as a premixed combination (10 µl/well) and incubated overnight at 4 °C on an orbital plate mixer with plasma (15 µl) and assay buffer (135 µl). For detection, beads were washed using a ring magnet plate washer before adding 25 µl of combined biotinylated detection antibodies and incubating for 2 h at room temperature on an orbital plate mixer.
(§1) All experiments were conducted according to the Animals (Scientific Procedures) Act 1986, UK, and approved by the UK Home Office. Clearance rates of proET-1 peptides and blood pressure effects of ELDP were determined in male Wistar rats (Charles River) anaesthetised with sodium thiopentone (120 mg/kg i.p.). Peptides were administered i.v. via a polyethylene catheter in the left femoral vein. Blood samples (0.5 ml) were collected from a catheter in the left carotid artery into chilled 1.5 ml microcentrifuge tubes containing 50 U/5 µl of heparin. Samples were centrifuged at 12,000 rpm for 2 min at 4 °C. Plasma (50 µl aliquots) samples were stored at −80 °C for subsequent analyses. Blood pressure and heart rate were recorded from the left carotid artery via a polyethylene catheter using Labchart 7.1 (AD Instruments Ltd).

The next series relates to anaesthetised rats. Kind of series: Mean arterial blood pressure in anaesthetised rats. Type of series: in vivo, rat. As to the method: Figure 7 Cardiovascular effects of ELDP. […] (B) vasoconstrictor response to ET-1 (1 × 10^−9 M) alone (n = 8) or after pre-incubation with ELDP[162-amide] (10 × 10^−9 M, n = 10); P < 0.002; Student’s t-test. (C) Change in mean arterial blood pressure in anaesthetised rats following ET-1 (0.3 nmol/kg, i.v.) alone (white circles, n = 6) or 15 min after ELDP (3 nmol/kg i.v.) (red circles, n = 6). […] Results are mean ± s.e.m.
as §1

The next series relates to orphan GPCRs. As to the kind of experiment: PathHunter Orphan GPCR biosensor panel (ß-arrestin binding, ß-galactosidase complementation). Conditions: 0.1 µM ELDP, 90 min at room temperature, duplicate, 5000 cells per well; chemiluminescence; no response above three standard deviations of control. The class given is cell-based. The source says:
An important component of ET-1-induced vasoconstriction is Ca^2+ influx through voltage-gated L-type Ca^2+ channels, [67]. Modulation of ET-1 responses by ELDP therefore likely involves facilitation of Ca^2+ influx. Responses to norepinephrine and serotonin are also augmented by ET-1, and this has been attributed to increased Ca^2+ influx[68]–[70]. To investigate whether ELDP mediates its effects via a distinct G-protein coupled receptor (GPCR), whose ligand pairing had yet to be assigned, ELDP was evaluated against a panel of cell-expressed orphan GPCRs using a detection system based on ß-arrestin binding (Supplementary Figure S3). […]
arrestin and to the GPCR complementing each other to reconstitute ß-galactosidase activity, which is then measured by chemiluminescence ß-galactosidase assay as an index of receptor binding (1,2).
Orphan GPCR screening for ELDP was undertaken by DiscoverRx Corporation, Fremont, CA 94538, USA. […] At the end of the incubation period chemiluminescent substrate was add, and incubated for 60 min before measurement of relative luminescence (RLU) using a PerkinElmer […]
Data Analysis: Percentage activity was calculated for each test well relative to the mean RLU of the corresponding vehicle-treated GPCR. Results are expressed as mean control (%) ± coefficient of […]

Setting [2] is: rat, 1 nmol/kg i.v. bolus, plasma sampled 0.5–40 min, two-phase clearance.

Consider “ALENLLPTKATDRENRCQCASQKDKKCWNFCQAGKELRAEDIMEKDWNNHKKGKDCSKLGKKCIYQQLVRGRKI (disulfide (positions not given here)) [ELDP]”, for which the “plasma level 30 s after injection” value in series [1] (anaesthetised male Wistar rats, bolus 1 nmol/kg i.v. of each peptide as a combined solution in 0.9% saline/0.1% BSA, arterial plasma, Luminex multiplex immunoassay, mean ± SD) is 3.65 ± 0.23 nM. Besides, in series [1] (setting [2]), the “estimated t½, phase 1” value was 0.5 min and the “estimated t½, phase 2” value is listed as 5.7 min. Further, in series [1] (rat, 1 nmol/kg i.v., hypothetical maximum plasma concentration 23–35 pmol/ml), the “plasma level at 30 s as % of administered peptide, relative to estimates for dilution in circulating blood” value is recorded as 10–16%. In the series with anaesthetised rats (3 nmol/kg i.v., anaesthetised rats), the “effect on blood pressure, peptide alone” value is given as “no effect”. Further, the “magnitude of the initial pressor response to ET-1” value with anaesthetised rats (ET-1 0.3 nmol/kg i.v. given 15 min after ELDP 3 nmol/kg i.v., n = 6 per group) is recorded as “without changing”. Moreover, in the series on anaesthetised rats (ET-1 0.3 nmol/kg i.v. given 15 min after ELDP 3 nmol/kg i.v., n = 6 per group, P < 0.02), the “duration of the pressor response to ET-1” value was “significantly increased”. Also, the “receptor – ligand pairing in orphan GPCR screen” value in the series on orphan GPCRs is recorded as “failed to identify an ELDP receptor – ligand pair”.
